Reference: patent US20250052985A1, “SYSTEM AND METHOD FOR QUANTITATIVE PHASE IMAGING FOR MULTI-PARAMETRIC SCREENING OF TUMOR THERAPY RESPONSE” (UNIVERSITY OF UTAH RESEARCH FOUNDATION, priority 2023, published 2025)

How the values were obtained:
Type in all cases: cell-based
HCI-038 PDxO cells = assay: QPI on cells from patient-derived organoid HCI-038 (bone metastasis); settings: HCI-038
Description: In some embodiments, the QPI microscope system 110 performs QPI on cells from patient-derived organoids and direct-from-patient samples. For example, the electronic controller 155 analyzes data on cells from a set of 5 organoids representing samples collected from two patients, as illustrated by a workflow 3400 in FIG. 24. The workflow 3400 is an experiment workflow illustrating how assays are analyzed by the QPI microscope system 110. In some embodiments, the QPI microscope system 110 images cells for 48 h, and uses an automatic segmentation algorithm, via the electronic controller 155, to identify individual cells from background, as shown in images 3405 and 3410 of FIG. 24. […] The electronic controller 155 determines the mass of each cell by summing the cell mass over the segmented area. In some embodiments, plots of mass over time reveal single cell growth rates, as shown by graph 3415 of FIG. 24. The graph 3415 is a mass vs. time plot showing DMSO treated cells growing cells at a typical location. Cells outlined in green are shown as green on the plot, other growing cells are shown in purple. […] In some embodiments, EC50 measured by the QPI microscope system 110 is strongly concordant with gold standard techniques such as CTG over 27 conditions (e.g., 9 compounds, 3 breast cancer cell lines). […]

HCI-039 PDxO cells = assay: QPI on cells from patient-derived organoid HCI-039 (pleural effusion); settings: HCI-039
Description: In some embodiments, the QPI microscope system 110 performs QPI on cells from patient-derived organoids and direct-from-patient samples. For example, the electronic controller 155 analyzes data on cells from a set of 5 organoids representing samples collected from two patients, as illustrated by a workflow 3400 in FIG. 24. The workflow 3400 is an experiment workflow illustrating how assays are analyzed by the QPI microscope system 110. In some embodiments, the QPI microscope system 110 images cells for 48 h, and uses an automatic segmentation algorithm, via the electronic controller 155, to identify individual cells from background, as shown in images 3405 and 3410 of FIG. 24. […] The electronic controller 155 determines the mass of each cell by summing the cell mass over the segmented area. In some embodiments, plots of mass over time reveal single cell growth rates, as shown by graph 3415 of FIG. 24. The graph 3415 is a mass vs. time plot showing DMSO treated cells growing cells at a typical location. Cells outlined in green are shown as green on the plot, other growing cells are shown in purple. The electronic controller 155 determine the specific growth rate (SGR) by fitting a line to time-series mass measurements and normalizing by an initial mass predicted by the fit to account for the effect of cell size on growth rate. The electronic controller 155 fits SGR as a function of dose to a sigmoidal dose response curve using a 3-parameter Hill model to extract dose response measurements, as shown by graph 3420 of FIG. 24. […] In some embodiments, EC50 measured by the QPI microscope system 110 is strongly concordant with gold standard techniques such as CTG over 27 conditions (e.g., 9 compounds, 3 breast cancer cell lines). […] As with cell line data, QPI data on cells from PDxO resolves differences in temporal dynamics of response to therapy, as shown in graph 3425 of FIG. 24. […] In some embodiments, the electronic controller 155 is configured to determine a drug response of each of the plurality of treatment samples from patient derived organoids. […]

HCI-037 PDxO cells = assay: QPI on cells from patient-derived organoid HCI-037 (primary lesion); settings: HCI-037
Description: In some embodiments, the QPI microscope system 110 performs QPI on cells from patient-derived organoids and direct-from-patient samples. For example, the electronic controller 155 analyzes data on cells from a set of 5 organoids representing samples collected from two patients, as illustrated by a workflow 3400 in FIG. 24. The workflow 3400 is an experiment workflow illustrating how assays are analyzed by the QPI microscope system 110. In some embodiments, the QPI microscope system 110 images cells for 48 h, and uses an automatic segmentation algorithm, via the electronic controller 155, to identify individual cells from background, as shown in images 3405 and 3410 of FIG. 24. […] The electronic controller 155 determines the mass of each cell by summing the cell mass over the segmented area. In some embodiments, plots of mass over time reveal single cell growth rates, as shown by graph 3415 of FIG. 24. The graph 3415 is a mass vs. time plot showing DMSO treated cells growing cells at a typical location. Cells outlined in green are shown as green on the plot, other growing cells are shown in purple. The electronic controller 155 determine the specific growth rate (SGR) by fitting a line to time-series mass measurements and normalizing by an initial mass predicted by the fit to account for the effect of cell size on growth rate. The electronic controller 155 fits SGR as a function of dose to a sigmoidal dose response curve using a 3-parameter Hill model to extract dose response measurements, as shown by graph 3420 of FIG. 24. […] In some embodiments, EC50 measured by the QPI microscope system 110 is strongly concordant with gold standard techniques such as CTG over 27 conditions (e.g., 9 compounds, 3 breast cancer cell lines). […] As with cell line data, QPI data on cells from PDxO resolves differences in temporal dynamics of response to therapy, as shown in graph 3425 of FIG. 24. […] In some embodiments, the electronic controller 155 is configured to determine a drug response of each of the plurality of treatment samples from patient derived organoids.
The graphs 3500 includes graph A of the graphs 3500 showing normalized mass vs. time for HCI-037 (primary), HCI-038 (metastatic), and HCI-039 (pleural effusion) showing reduction in growth as concentration increases. Graphs B, C, D, and E of the graphs 3500 show dose response plots showing the differential response between different disease models. Graphs F, G, H, and I of the graphs 3500 show Hellinger distance vs. time plots showing the time of response for the different models treated with various therapies. In some embodiments, HCI-037, HCI-038, and HCI-039, PDxO models are used that are derived from primary lesion, bone metastasis, and pleural effusion, respectively, at different time points from a single patient during the course of treatment and progressive disease. In some embodiments, the electronic controller 155 is configured to determine a difference drug response from patient derived organoids. In some embodiments, the patient derived organoids are tumor organoids.

EC50 compared with HCI-037 (HCI-039 PDxO cells): similar | EC50 compared with HCI-039 (HCI-037 PDxO cells): similar
Structure (SMILES): CC[C@H](NC(=O)[C@H](C)NC)C(=O)N1C[C@@H](O)C[C@H]1Cc1c(-c2[nH]c3cc(F)ccc3c2C[C@@H]2C[C@H](O)CN2C(=O)[C@H](CC)NC(=O)[C@H](C)NC)[nH]c2cc(F)ccc12 [birinapant]
response (HCI-038 PDxO cells): no response | time of response compared with HCI-037 (HCI-039 PDxO cells): much faster time of response | depth of response compared with HCI-039 (HCI-037 PDxO cells): much greater depth of response
